Data published in patent publication US20030083202A1, “Roots-inducing agent of plants and its treatment method” (priority 2001, published 2003).

Legend:
[1] = system: cut stems of chrysanthemums; assay: Roots-inducing and fixation-stimulating actions in cut stems of chrysanthemums (leaf spray); format: in vivo; set-up: Index for roots-induction, Total indexes: scale not given here; details: 50th day; for Index for roots-induction, cutting 1 / Index for roots-induction, cutting 2 / Index for roots-induction, cutting 3 / Index for roots-induction, cutting 4 / Index for roots-induction, cutting 5 / Index for roots-induction, cutting 6 / Index for roots-induction, cutting 7 / Index for roots-induction, cutting 8: 5 ppm water solution sprayed once onto leaves, 8 cuttings; for Index for roots-induction, Total indexes: sum of the indexes of 8 cuttings, 5 ppm spray, non-treatment 7
Excerpt: Stems of chrysanthemums were cut out by 5 cm from the part at 5-10 cm from the top to prepare cuttings with 2 leaves. The water solution of the tested compound (5 ppm) was sprayed once in a misty manner through an mascot spray onto the surface of leaves so that the surface got wet uniformly for each 8 cuttings. The cuttings in the pots were grew in a cabinet where the temperature was controlled in the range of 15 (C at lowest at night to 30 (C at highest in the daytime. Water was supplied appropriately according to the extent of dryness of soil during the cultivation of plants.
On the 50th day after the tested compound was sprayed, roots-induction of each cutting was checked by diggings up, and its extent was shown as an index for each rank.

[2] = system: cuttings of violets without roots; assay: Roots-inducing and fixation-stimulating actions in cuttings of violets (leaf spray); format: in vivo
Method: Seedlings of violets were used in the experiment. The lower part of the seedlings of violets was cut and cuttings of violets without roots were prepared. Each cutting of violets was planted into cultivation soil in a plug tray and supplied water sufficiently.
The plug trays were lined up on the working stand in a green house where the temperature was controlled at 25-33 (C. The water solution of 4-chloroindole-3-acetic acid (20 ppm) was sprayed in a misty manner through an atomizer onto the surface of leaves so that the surface got wet uniformly (once).
Then, the plants were grew for 38 days with 1-2 times water supply every other day, and numbers of the cuttings with and without roots-induction and of the dead cuttings. In the control, the cuttings were sprayed only water instead of 4-chloroindole-3-acetic acid solution and grew under the same conditions as those described above.

[3] = 20 ppm water solution sprayed once onto leaves, after 38 days, of 93 cuttings

Row | SMILES | Index for roots-induction, cutting 1 [1] | Index for roots-induction, cutting 2 [1] | Index for roots-induction, cutting 3 [1] | Index for roots-induction, cutting 4 [1] | Index for roots-induction, cutting 5 [1] | Index for roots-induction, cutting 6 [1] | Index for roots-induction, cutting 7 [1] | Index for roots-induction, cutting 8 [1] | Index for roots-induction, Total indexes [1] | Roots-inducing and fixation-stimulating actions (in words) ([2]; 20 ppm spray, versus water control) | Time at which roots-induction was observed ([2]; 20 ppm spray, roots checked by digging up at random, no statistical analysis, control only after 7 days) | Cuttings with roots-induction (number of cuttings) [2, 3] | Cuttings without roots-induction (%) [2, 3] | Cuttings without roots-induction (number of cuttings) [2, 3] | Dead cuttings (%) [2, 3] | Dead cuttings (number of cuttings) [2, 3] | Cuttings with roots-induction (%) ([2]; 20 ppm water solution sprayed once onto leaves, after 38 days, of 93 cuttings, listed as 4-Cl-iAA) | Cuttings with roots-induction (%) ([2]; 20 ppm water solution sprayed once onto leaves, after 38 days, of 93 cuttings, listed as 4-chloroindole-3-acetic acid)
1 | CCC(C)OC(=O)Cc1c[nH]c2cccc(Cl)c12 (racemic) [4-Cl-IAA 2-Bu] | 2 (The cuttings with 10-19 roots per a cutting) | 2 (The cuttings with 10-19 roots per a cutting) | 2 (The cuttings with 10-19 roots per a cutting) | 2 (The cuttings with 10-19 roots per a cutting) | 1 (The cuttings with 5-9 roots per a cutting) | 1 (The cuttings with 5-9 roots per a cutting) | 0 (The cuttings with less than 4 roots (including no roots)) | 0 (The cuttings with less than 4 roots (including no roots)) | 10 | – | – | – | – | – | – | – | – | –
2 | CCCCOC(=O)Cc1c[nH]c2cccc(Cl)c12 [4-Cl-IAA 1-Bu] | 2 (The cuttings with 10-19 roots per a cutting) | 2 (The cuttings with 10-19 roots per a cutting) | 2 (The cuttings with 10-19 roots per a cutting) | 2 (The cuttings with 10-19 roots per a cutting) | 1 (The cuttings with 5-9 roots per a cutting) | 1 (The cuttings with 5-9 roots per a cutting) | 0 (The cuttings with less than 4 roots (including no roots)) | 0 (The cuttings with less than 4 roots (including no roots)) | 10 | – | – | – | – | – | – | – | – | –
3 | CC(C)OC(=O)Cc1c[nH]c2cccc(Cl)c12 [4-Cl-IAA 2-Pr] | 2 (The cuttings with 10-19 roots per a cutting) | 2 (The cuttings with 10-19 roots per a cutting) | 2 (The cuttings with 10-19 roots per a cutting) | 2 (The cuttings with 10-19 roots per a cutting) | 2 (The cuttings with 10-19 roots per a cutting) | 1 (The cuttings with 5-9 roots per a cutting) | 0 (The cuttings with less than 4 roots (including no roots)) | 0 (The cuttings with less than 4 roots (including no roots)) | 11 | – | – | – | – | – | – | – | – | –
4 | C=CCOC(=O)Cc1c[nH]c2cccc(Cl)c12 [4-Cl-IAA Ally] | 3 (The cuttings with 20 or more roots per a cutting) | 3 (The cuttings with 20 or more roots per a cutting) | 2 (The cuttings with 10-19 roots per a cutting) | 2 (The cuttings with 10-19 roots per a cutting) | 2 (The cuttings with 10-19 roots per a cutting) | 1 (The cuttings with 5-9 roots per a cutting) | 1 (The cuttings with 5-9 roots per a cutting) | 0 (The cuttings with less than 4 roots (including no roots)) | 14 | – | – | – | – | – | – | – | – | –
5 | CCOC(=O)Cc1c[nH]c2cccc(Cl)c12 [4-Cl-IAA Et] | 3 (The cuttings with 20 or more roots per a cutting) | 3 (The cuttings with 20 or more roots per a cutting) | 3 (The cuttings with 20 or more roots per a cutting) | 3 (The cuttings with 20 or more roots per a cutting) | 3 (The cuttings with 20 or more roots per a cutting) | 2 (The cuttings with 10-19 roots per a cutting) | 1 (The cuttings with 5-9 roots per a cutting) | 0 (The cuttings with less than 4 roots (including no roots)) | 18 | – | – | – | – | – | – | – | – | –
6 | CCCOC(=O)Cc1c[nH]c2cccc(Cl)c12 [4-Cl-IAA I-Pr] | 3 (The cuttings with 20 or more roots per a cutting) | 3 (The cuttings with 20 or more roots per a cutting) | 2 (The cuttings with 10-19 roots per a cutting) | 2 (The cuttings with 10-19 roots per a cutting) | 2 (The cuttings with 10-19 roots per a cutting) | 2 (The cuttings with 10-19 roots per a cutting) | 1 (The cuttings with 5-9 roots per a cutting) | 1 (The cuttings with 5-9 roots per a cutting) | 16 | – | – | – | – | – | – | – | – | –
7 | COC(=O)Cc1c[nH]c2cccc(Cl)c12 [4-Cl-IAA Me] | 3 (The cuttings with 20 or more roots per a cutting) | 3 (The cuttings with 20 or more roots per a cutting) | 3 (The cuttings with 20 or more roots per a cutting) | 2 (The cuttings with 10-19 roots per a cutting) | 2 (The cuttings with 10-19 roots per a cutting) | 2 (The cuttings with 10-19 roots per a cutting) | 0 (The cuttings with less than 4 roots (including no roots)) | 0 (The cuttings with less than 4 roots (including no roots)) | 15 | – | – | – | – | – | – | – | – | –
8 | CC(C)COC(=O)Cc1c[nH]c2cccc(Cl)c12 [4-Cl-IAA isoBu] | 2 (The cuttings with 10-19 roots per a cutting) | 2 (The cuttings with 10-19 roots per a cutting) | 2 (The cuttings with 10-19 roots per a cutting) | 1 (The cuttings with 5-9 roots per a cutting) | 1 (The cuttings with 5-9 roots per a cutting) | 0 (The cuttings with less than 4 roots (including no roots)) | 0 (The cuttings with less than 4 roots (including no roots)) | 0 (The cuttings with less than 4 roots (including no roots)) | 8 | – | – | – | – | – | – | – | – | –
9 | CCCCCOC(=O)Cc1c[nH]c2cccc(Cl)c12 [4-Cl-IAA pentyl] | 2 (The cuttings with 10-19 roots per a cutting) | 2 (The cuttings with 10-19 roots per a cutting) | 2 (The cuttings with 10-19 roots per a cutting) | 2 (The cuttings with 10-19 roots per a cutting) | 1 (The cuttings with 5-9 roots per a cutting) | 1 (The cuttings with 5-9 roots per a cutting) | 0 (The cuttings with less than 4 roots (including no roots)) | 0 (The cuttings with less than 4 roots (including no roots)) | 10 | – | – | – | – | – | – | – | – | –
10 | O=C(O)Cc1c[nH]c2cccc(Cl)c12 [4-Cl-IAA, 4-chloroindole-3-acetic acid] | 3 (The cuttings with 20 or more roots per a cutting) | 2 (The cuttings with 10-19 roots per a cutting) | 2 (The cuttings with 10-19 roots per a cutting) | 2 (The cuttings with 10-19 roots per a cutting) | 2 (The cuttings with 10-19 roots per a cutting) | 2 (The cuttings with 10-19 roots per a cutting) | 0 (The cuttings with less than 4 roots (including no roots)) | 0 (The cuttings with less than 4 roots (including no roots)) | 13 | extremely prominent | around 3 days | 74 | (6) % | 6 | (14) % | 13 | (80) % | 80
